Experiment: ET-1 Assay: Fibroblasts (primary human lung and dermal, HFL-1, 3T3 etc) are seeded in 96-well plates at ~15000 cells/well and serum starved for 0-48 hours. After media exchange, compounds serially diluted in DMSO are added to the cells. After a brief incubation of ~30 min, stimulants (TGFb, serum, LPA etc) are added followed by further incubation for 16-48 hours. Media is then harvested and stored frozen in plate format for later endothelin-1 (ET-1) determination by ELISA. Toxicity measurements are made using the ATPlite kit (Perkin-Elmer). ET-1 is quantified using an ELISA kit (R&D Systems). The amount of ET-1 produced in the assay wells are back-calculated using the ELISA standard. The ability of a compound to inhibit ET-1 production is typically analyzed by fitting dose-response curves to a 4-parameter logistic function to obtain an EC50 value.
Details: HFL1

Compound | EC50
O=C(Nc1cc(=O)n(-c2ccc(OC(F)(F)F)cc2)cc1-c1ccc(F)cc1)Oc1ccccc1 | > 200 µM
CCOc1ccc(-n2cc(-c3cn[nH]c3)c(C)cc2=O)c(C)c1 | in the range around 125 µM
O=c1c2nccnc2ccn1-c1ccc(OC(F)(F)F)cc1 | < 50 µM
CC(C)OC(=O)Nc1cc(=O)n(-c2ccc(OC(F)(F)F)cc2)cc1-c1cnn(C)c1 | > 200 µM
Cn1cc(-c2cn(-c3ccc(C#N)cc3)c(=O)c3cccnc23)cn1 | in the range around 125 µM
Cn1cc(-c2cn(-c3ccc(OC(F)(F)F)cc3)c(=O)cc2NCc2ccc(F)cc2F)cn1 | < 50 µM
Cn1cc(-c2cn(-c3ccc(OC(F)(F)F)cc3)c(=O)cc2Oc2ccc(Cl)cc2)cn1 | > 200 µM
Cc1cc(=O)n(-c2ccc(Cl)cc2)cc1-c1ccc(F)cc1 | > 200 µM
CC(C)n1ccc2c(-c3cnn(C)c3)cn(-c3ccc(OC(F)(F)F)cc3)c(=O)c21 | < 50 µM
O=c1ccc(-c2cn[nH]c2)cn1-c1cccc(C(F)(F)F)c1 | > 200 µM
CCOc1ccc(-n2cc(-c3ccc4scnc4c3)c(C)cc2=O)c(C)c1 | > 200 µM
COCCOc1ccc(-n2cc(-c3cn[nH]c3)c(C)cc2=O)cc1 | > 200 µM
Cc1cc(=O)n(-c2cccc(C(N)=O)c2)cc1-c1ccc(F)cc1 | > 200 µM
Cc1cc(=O)n(-c2ccc3scnc3c2)cc1-c1cnn(C)c1 | > 200 µM
Cn1cc(-c2cn(-c3ccc(OC(F)(F)F)cc3)c(=O)cc2NCc2ccc(C#N)cc2)cn1 | > 200 µM
O=c1cc(OC2CCS(=O)(=O)CC2)c(-c2ccc(F)cc2)cn1-c1ccc(OC(F)(F)F)cc1 | < 50 µM
COc1cc(-n2cc(-c3ccc(F)cc3)c(C)cc2=O)cc(OC)c1OC | in the range around 125 µM
CCn1nnc2c(=O)n(-c3ccc(OC(F)(F)F)cc3)cc(-c3cnn(C)c3)c21 | < 50 µM
CCOc1ccc(-n2cc(-c3ccccc3)ccc2=O)c(C)c1 | in the range around 125 µM
Cc1cc(=O)n(-c2ccc(OC(F)(F)F)cc2)cc1-c1cccc2c1OCC(=O)N2 | > 200 µM
CN1CCC(Oc2cc(=O)n(-c3ccc(OC(F)(F)F)cc3)cc2-c2cnn(C)c2)CC1 | < 50 µM

Compound | EC50
O=c1c2c(ccn2C2CC2)c(-c2cn[nH]c2)cn1-c1ccc(OC(F)(F)F)cc1 | < 50 µM
CCOc1ccc(-n2cc(-c3cnn(C)c3)c(OCCOCCOC)cc2=O)c(C)c1 | in the range around 125 µM
CCn1ccc2ccn(-c3ccc(OC(F)(F)F)cc3)c(=O)c21 | < 50 µM
Cc1cc(=O)n(-c2ccc(OC(F)(F)F)cc2)cc1-c1ccc2c(c1)N(C)C(=O)CO2 | < 50 µM
Cc1cc(C)c(=O)n(-c2ccccc2)c1 | > 200 µM
Cc1cc(=O)n(-c2cccc(OC(F)(F)F)c2)cc1-c1ccccc1 | < 50 µM
Cn1cc(-c2cn(-c3ccc(OC(F)(F)F)cc3)c(=O)cc2C(=O)O)cn1 | > 200 µM
CN(Cc1ccccc1)c1cc(=O)n(-c2ccc(OC(F)(F)F)cc2)cc1-c1cnn(C)c1 | < 50 µM
CCOc1ccc(-n2cc(-c3cnn(C)c3)c(NCc3cc(F)cc(F)c3)cc2=O)c(C)c1 | < 50 µM
CCn1ccc2c(-c3ccc(F)cc3)c[nH]c(=O)c21 | < 50 µM
O=c1ccc(C(F)(F)F)cn1-c1cccc(F)c1 | > 200 µM
Cc1cc(=O)n(-c2cccc(OC(F)(F)F)c2)cc1-c1cnn(C)c1 | > 200 µM
CCOc1ccc(CNc2cc(=O)n(-c3ccc(OCC)cc3C)cc2-c2cnn(C)c2)c(C)c1 | < 50 µM
Cc1cc(=O)n(-c2ccccc2)cc1-c1ccccc1 | in the range around 125 µM
O=c1ccc(-c2cncnc2)cn1-c1cccc(F)c1 | > 200 µM
CCOc1ccc(-n2cc(-c3cnn(C)c3)c3c(c2=O)CCCC3)c(C)c1 | < 50 µM
O=c1c2[nH]ccc2ccn1-c1ccc(OC(F)(F)F)cc1 | < 50 µM
CCn1nnc2c(=O)[nH]cc(-c3cnn(C)c3)c21 | > 200 µM
CCOc1ccc(-n2cc(C(C)=O)ccc2=O)c(C)c1 | > 200 µM
Cc1cc(=O)n(-c2ccc3c(c2)OCO3)cc1-c1ccc(F)cc1 | > 200 µM

From ChEMBL document CHEMBL5725356, “Anti-fibrotic pyridinones” (2017)
